Data as given in patent publication US5399711A, “Thiomarinol compounds” (Sankyo Company, Limited, priority 1992, dated 1995).
In brackets after ≈: the same amount, converted by molar mass.

Tests used:
tumor = details: Japanese Patent Kokai Application Number Sho 63-27484; cited from earlier work
Enterobacter cloacae 963 = experiment: MIC, agar medium dilution method (Test Example 1); assay type: cell-based; details: nutrient agar
Description: (§1) The minimum inhibitory concentration (MIC) of thiomarinol, thiomarinol B, thiomarinol C and pseudomonic acid A (identified as "A", "B", "C" and "P", respectively) given as μg/ml, against gram-positive and gram-negative bacteria was determined by the agar medium dilution method, using a nutrient agar medium (Product of Eiken Chemical Co., Ltd.).

[1] = system: Enterococcus faecalis 681; experiment: MIC, agar medium dilution method (Test Example 1); assay type: cell-based; details: nutrient agar
Description: as §1

Escherichia coli 609 = experiment: MIC, agar medium dilution method (Test Example 1); assay type: cell-based; details: nutrient agar
Description: as §1

Escherichia coli NIHJ = experiment: MIC, agar medium dilution method (Test Example 1); assay type: cell-based; details: nutrient agar
Description: as §1

[2] = system: Klebsiella pneumoniae 806; experiment: MIC, agar medium dilution method (Test Example 1); assay type: cell-based; details: nutrient agar
Description: as §1

[3] = system: Klebsiella pneumoniae 846 (R); experiment: MIC, agar medium dilution method (Test Example 1); assay type: cell-based; details: nutrient agar
Description: as §1

[4] = system: Morcranella morganii 1510; experiment: MIC, agar medium dilution method (Test Example 1); assay type: cell-based; details: nutrient agar
Description: as §1

Proteus vulgaris 1420 = experiment: MIC, agar medium dilution method (Test Example 1); assay type: cell-based; details: nutrient agar
Description: as §1

[5] = system: Pseudomonas aerucrinosa 1001; experiment: MIC, agar medium dilution method (Test Example 1); assay type: cell-based; details: nutrient agar
Description: as §1

[6] = system: Pseudomonas aerucrinosa No. 7; experiment: MIC, agar medium dilution method (Test Example 1); assay type: cell-based; details: nutrient agar
Description: as §1

[7] = system: Pseudomonas aeruginosa 3719; experiment: MIC, agar medium dilution method (Test Example 1); assay type: cell-based; details: nutrient agar
Description: as §1

Salmonella enteritidis = experiment: MIC, agar medium dilution method (Test Example 1); assay type: cell-based; details: Salmonella enterica, nutrient agar
Description: as §1

Serratia marcescens 1184 = experiment: MIC, agar medium dilution method (Test Example 1); assay type: cell-based; details: nutrient agar
Description: as §1

[8] = system: Staphylococcus aureus 209P; experiment: MIC, agar medium dilution method (Test Example 1); assay type: cell-based; details: nutrient agar
Description: as §1

[9] = system: Staphylococcus aureus 535 (MRSA); experiment: MIC, agar medium dilution method (Test Example 1); assay type: cell-based; details: nutrient agar
Description: as §1

[10] = system: Staphylococcus aureus 56R; experiment: MIC, agar medium dilution method (Test Example 1); assay type: cell-based; details: nutrient agar
Description: as §1

[11] = system: Mycoplasma hyorhinis BTS 7; experiment: Antimycoplasmal MIC (Test Example 2); assay type: cell-based; details: BTS7, 120 h, Chanock medium, 20% horse serum, 0.005 ml of 10^5 CFU/ml, 37° C., 5 days
Description: (§2) Following the same procedure as for Test Example 1, the activity of thiomarinol, thiomarinol B, thiomarinol C and pseudomonic acid A (identified as "A", "B", "C" and "P", respectively) was assayed against various species of mycoplasma. Inoculum: 0.005 ml of 10^5 CFU/ml Thiomarinol B, Thiomarinol C and Pseudomonic acid A were all assayed on Chanock medium [prepared as described in P.N.A.S., 48, 41-49 (1962) and supplemented with 20% horse serum] for all microorganisms; Culture conditions: 37° C., 5 days, slightly aerobic (BBL gas pack method [cultivation in disposable CO2 generator from Becton Dickinson Microbiology Systems, Cockeysville, Md. 2103 U.S.A.])

bacteria = details: compared with the thiomarinol derivatives or with pseudomonic acid; cited from earlier work
[12] = system: gram-positive and gram-negative bacteria; experiment: Antibacterial activity, overall comparison; assay type: cell-based; details: for antibacterial activity compared with pseudomonic acid A: general statement
Description: as §1

mycoplasma = experiment: Anti-mycoplasmal activity, overall comparison; assay type: cell-based; details: compared with thiomarinol and pseudomonic acid A; Table 2
Description: Following the same procedure as for Test Example 1, the activity of thiomarinol, thiomarinol B, thiomarinol C and pseudomonic acid A (identified as "A", "B", "C" and "P", respectively) was assayed against various species of mycoplasma.

Solubility = assay type: physicochemical; details: for solubility (insoluble in): hexane and water; for solubility (soluble in): organic solvents
[13] = system: Mycoplasma hyosynoviae S-16; experiment: Antimycoplasmal MIC (Test Example 2); assay type: cell-based; details: S16, 120 h, Mucin PPLO agar medium, 15% horse serum, 0.005 ml of 10^5 CFU/ml, 37° C., 5 days
Description: as §2, with “microorganisms; Thiomarinol was assayed on the following media: M. hyosynoviae: Mucin PPLO* agar medium (15% horse serum supplemented) |*PPLO ( -- Pleuro -- Pneumonia- -- Like -- Organism) |PPLO Broth without CV (Difco) | 21 g |Mucin bacteriological (Difco) | 5 g |Distilled water 800 ml |Agar Noble (Difco) 12 g |Equine serum 150 ml |25% Fresh yeast extract | 50 ml” for “microorganisms;”

SMILES	MIC (Enterobacter cloacae 963) [µg/mL]	MIC [1] [µg/mL]	MIC (Escherichia coli 609) [µg/mL]	MIC (Escherichia coli NIHJ) [µg/mL]	MIC [2] [µg/mL]	MIC [3] [µg/mL]	MIC [4] [µg/mL]	MIC (Proteus vulgaris 1420) [µg/mL]	MIC [5] [µg/mL]	MIC [6] [µg/mL]	MIC (Salmonella enteritidis) [µg/mL]	MIC (Serratia marcescens 1184) [µg/mL]	MIC [8] [µg/mL]	MIC [9] [µg/mL]	MIC [10] [µg/mL]	antibacterial activity of prior art compounds (bacteria)	also measured
O=C1CCC(=O)N(O)CCCCCNC(=O)CCC(=O)N(O)CCCCCN1 [bisucaberin]	–	–	–	–	–	–	–	–	–	–	–	–	–	–	–	–	antitumor activity (tumor): exhibit antitumor activity
CC(=CC(=O)OCCCCCCCCC(=O)O)CC1OCC(CC2OC2C(C)C(C)O)C(O)C1O (stereo not drawn) [pseudomonic acid A]	> 100	25 (≈ 49.9 µM)	100 (≈ 200 µM)	100 (≈ 200 µM)	100 (≈ 200 µM)	100 (≈ 200 µM)	> 100	0.4 (≈ 0.799 µM)	> 100	> 100	50 (≈ 99.9 µM)	> 100	0.05 (≈ 0.0999 µM)	0.2 (≈ 0.399 µM)	0.1 (≈ 0.2 µM)	weaker antibacterial activities than do the thiomarinol derivatives of the present invention	MIC [7]: > 100 µg/mL; MIC [11]: 0.39 µg/mL (≈ 0.779 µM)
C/C(=C\C(=O)OCCCCCCCCC(=O)O)C[C@@H]1OC[C@](O)(C[C@@H]2O[C@H]2[C@@H](C)[C@H](C)O)[C@@H](O)[C@H]1O [pseudomonic acid B]	–	–	–	–	–	–	–	–	–	–	–	–	–	–	–	weaker antibacterial activities than do the thiomarinol derivatives of the present invention	–
CC(=CC(=O)OCCCCCCCCC(=O)O)CC1OCC(CC=CC(C)C(C)O)C(O)C1O (stereo not drawn) [pseudomonic acid C]	–	–	–	–	–	–	–	–	–	–	–	–	–	–	–	weaker antibacterial activities than do the thiomarinol derivatives of the present invention	–
CC(=CC(=O)OCCCCC=CCCC(=O)O)CC1OCC(CC2OC2C(C)C(C)O)C(O)C1O (stereo not drawn) [pseudomonic acid D]	–	–	–	–	–	–	–	–	–	–	–	–	–	–	–	weaker antibacterial activities than do the thiomarinol derivatives of the present invention	–
C/C(=C\C(=O)OCCCCCCCC(=O)Nc1c2sscc-2[nH]c1=O)CC1OCC(C/C=C/C(C)C(C)O)C(O)C1O (stereo not drawn) [thiomarinol C]	3.1 (≈ 4.96 µM)	0.8 (≈ 1.28 µM)	1.5 (≈ 2.4 µM)	3.1 (≈ 4.96 µM)	1.5 (≈ 2.4 µM)	0.8 (≈ 1.28 µM)	12.5 (≈ 20 µM)	0.2 (≈ 0.32 µM)	0.8 (≈ 1.28 µM)	0.8 (≈ 1.28 µM)	1.5 (≈ 2.4 µM)	6.2 (≈ 9.92 µM)	≤ 0.01	≤ 0.01	≤ 0.01	–	MIC [7]: 0.4 µg/mL (≈ 0.64 µM); MIC [11]: 1.56 µg/mL (≈ 2.5 µM); antibacterial activity ([12]; compared with thiomarinol and pseudomonic acid A, Table 1): at least as good as those of thiomarinol and are, in general, significantly better than those of pseudomonic acid A; antibacterial activity compared with pseudomonic acid A [12]: significantly more potent antibacterial activity than does pseudomonic acid A; anti-mycoplasmal activity (mycoplasma): at least as good as those of thiomarinol and are, in general, significantly better than those of pseudomonic acid A; solubility (insoluble in) (Solubility): Insoluble in hexane and water; solubility (soluble in) (Solubility): Soluble in alcohols such as methanol, ethanol, propanol and butanol, as well as in dimethyl sulfoxide, dimethylformamide, chloroform, ethyl acetate, acetone and diethyl ether
C/C(=C\C(=O)OCCCCCCCC(=O)Nc1c2sscc-2[nH]c1=O)C(O)C1OCC(C/C=C/C(C)C(C)O)C(O)C1O (stereo not drawn) [thiomarinol]	1.5 (≈ 2.34 µM)	0.02 (≈ 0.0312 µM)	0.8 (≈ 1.25 µM)	0.8 (≈ 1.25 µM)	0.8 (≈ 1.25 µM)	0.2 (≈ 0.312 µM)	6.2 (≈ 9.68 µM)	0.05 (≈ 0.078 µM)	0.2 (≈ 0.312 µM)	0.4 (≈ 0.624 µM)	0.4 (≈ 0.624 µM)	3.1 (≈ 4.84 µM)	≤ 0.01	≤ 0.01	≤ 0.01	–	MIC [13]: 0.025 µg/mL (≈ 0.039 µM); antibacterial activity compared with pseudomonic acid A [12]: significantly more potent antibacterial activity than does pseudomonic acid A; solubility (insoluble in) (Solubility): insoluble in hexane and water; solubility (soluble in) (Solubility): Soluble in alcohols such as methanol, ethanol, propanol and butanol; and soluble in dimethyl sulfoxide, dimethylformamide, chloroform, ethyl acetate, acetone and diethyl ether
